Among the data in US20160159789A1, “SUBSTITUTED PYRAZOLOPYRIDINES” (BAYER PHARMA AKTIENGESELLSCHAFT, priority 2013, published 2016) are IC50 values, retold here.

This experiment addresses T1, human full-length MKNK1 (Homo sapiens, UniProt Q9BUB5, T385D).
T1 construct: purchased Carna Biosciences 02-145; host or cells: insect cells (baculovirus expression system)
Kind of experiment: MKNK1 kinase high ATP assay (TR-FRET). The experiment is classed as biochemical. The note with it: high ATP (2 mM final), 15 min preincubation with enzyme, GST-MKNK1 (T344D). Summed up:
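GST-tagged full-length human MKNK1 from insect cells, preincubated 15 min with compound at 22° C in HEPES pH 7.5/MgCl2/DTT buffer, then reacted 30 min with 2 mM ATP and 0.06 μM biotinylated peptide (final). Phosphopeptide detected by TR-FRET (anti-pS6 pSer236/Eu-ProteinG, streptavidin-XL665), 665/620 ratio normalised to no-enzyme and no-inhibitor controls.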
A general note: In TR-FRET formats the signal depends on donor and acceptor labels being close together.

Structures are written as SMILES.

T1 sequence (Q9BUB5 1-424 isoform Q9BUB5-2 T344D): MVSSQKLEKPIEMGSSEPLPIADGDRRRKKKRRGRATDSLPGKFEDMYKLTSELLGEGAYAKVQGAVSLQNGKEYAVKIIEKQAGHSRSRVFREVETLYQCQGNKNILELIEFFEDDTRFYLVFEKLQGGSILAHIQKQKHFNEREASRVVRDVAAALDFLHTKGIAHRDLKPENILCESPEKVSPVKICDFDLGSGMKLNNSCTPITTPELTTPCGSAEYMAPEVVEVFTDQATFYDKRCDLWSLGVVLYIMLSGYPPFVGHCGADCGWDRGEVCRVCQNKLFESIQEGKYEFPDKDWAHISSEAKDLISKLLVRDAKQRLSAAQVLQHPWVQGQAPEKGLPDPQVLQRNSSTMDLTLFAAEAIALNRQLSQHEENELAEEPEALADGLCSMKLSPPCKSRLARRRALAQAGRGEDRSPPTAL

Regarding `CN(C)C(=O)c1nc2c(Nc3cnc4[nH]ncc4c3)ncnc2s1` [Example 123, N,N-Dimethyl-7-(1H-pyrazolo[3,4-b]pyridin-5-ylamino)[1,3]thiazolo[5,4-d]pyrimidine-2-carboxamide], the concentration for half-maximal inhibition (IC50) – broadly, the point on the concentration scale where inhibition reaches its midpoint – stood at 230 nM. This counts as sub-micromolar.
Regarding `COc1nc2[nH]ncc2cc1Nc1ncnc2sc(C(=O)N(C)CCC(=O)N(C)C)nc12` [Example 138, N-[3-(Dimethylamino)-3-oxopropyl]-7-[(6-methoxy-1H-pyrazolo[3,4-b]pyridin-5-yl)amino]-N-methyl[1,3]thiazolo[5,4-d]pyrimidine-2-carboxamide], the 50% inhibitory concentration (IC50) turned out to be 114 nM. Compared with the last molecule, the IC50 is about 2-fold lower.
Next, `C[C@@H]1COCCN1C(=O)c1[nH]c2ncnc(Nc3cc4cn[nH]c4cn3)c2c1Br` [Example 70, [5-Bromo-4-(1H-pyrazolo[3,4-c]pyridin-5-ylamino)-7H-pyrrolo[2,3-d]pyrimidin-6-yl][(3R)-3-methylmorpholin-4-yl]methanone]: 40.7 nM.
The molecule `CC(C)NC(=O)C1CCc2[nH]c3ncnc(Nc4cnc5[nH]ncc5c4)c3c2C1` (racemic) [Example 29, (RS)—N-(Propan-2-yl)-4-(1H-pyrazolo[3,4-b]pyridin-5-ylamino)-6,7,8,9-tetrahydro-5H-pyrimido[4,5-b]indole-6-carboxamide] registered an IC50 of 24.7 nM.
As to `c1nc(Nc2cnc3[nH]ncc3c2)c2cc[nH]c2n1` [Example 1, N-(7H-Pyrrolo[2,3-d]pyrimidin-4-yl)-1H-pyrazolo[3,4-b]pyridin-5-amine], half-maximal inhibition (IC50) required 28.1 nM.
Turning to `CN(CCC(F)(F)F)C(=O)[C@H]1CCc2c(sc3ncnc(Nc4cc5cn[nH]c5cn4)c23)C1` [Example 48, (7S)—N-Methyl-4-(1H-pyrazolo[3,4-c]pyridin-5-ylamino)-N-(3,3,3-trifluoropropyl)-5,6,7,8-tetrahydro[1]benzothieno[2,3-d]pyrimidine-7-carboxamide], half-maximal inhibition (IC50) was put at 6.2 nM.
Molecule `O=C([C@H]1CCc2c(sc3ncnc(Nc4cnc5[nH]ncc5c4)c23)C1)N1CCC1` [Example 97, Azetidin-1-yl[(7S)-4-(1H-pyrazolo[3,4-b]pyridin-5-ylamino)-5,6,7,8-tetrahydro[1]benzothieno[2,3-d]pyrimidin-7-yl]methanone] yielded an IC50 of 47.6 nM.
In turn, `COc1nc2[nH]ncc2cc1Nc1ncnc2sc3c(c12)CC[C@H](C(=O)N1CCC(N(C)C)CC1)C3` [Example 43, [4-(Dimethylamino)piperidin-1-yl]{(7S)-4-[(6-methoxy-1H-pyrazolo[3,4-b]pyridin-5-yl)amino]-5,6,7,8-tetrahydro[1]benzothieno[2,3-d]pyrimidin-7-yl}methanone] gave a half-maximal inhibitory concentration (IC50) of 1.6 nM. Compared with the last molecule, the IC50 is about 30-fold lower.
Next, `COc1nc2[nH]ncc2cc1Nc1ncnc2sc3c(c12)CC[C@H](C(=O)N(C)CCC(F)(F)F)C3` [Example 136, (7S)-4-[(6-Methoxy-1H-pyrazolo[3,4-b]pyridin-5-yl)amino]-N-methyl-N-(3,3,3-trifluoropropyl)-5,6,7,8-tetrahydro[1]benzothieno[2,3-d]pyrimidine-7-carboxamide]: 0.5 nM.
The same measure for `CCN(C(=O)[C@H]1CCc2c(sc3ncnc(Nc4cc5cn[nH]c5cn4)c23)C1)C(C)C` [Example 46, (7S)—N-Ethyl-N-(propan-2-yl)-4-(1H-pyrazolo[3,4-c]pyridin-5-ylamino)-5,6,7,8-tetrahydro[1]benzothieno[2,3-d]pyrimidine-7-carboxamide]: 4.9 nM; for `O=C(c1[nH]c2ncnc(Nc3cc4cn[nH]c4nc3O)c2c1Br)N1CCOCC1` [Example 68]: 10.1 nM.
Molecule `CC(C)N(C)C(=O)[C@H]1CCc2c(sc3ncnc(Nc4cnc5[nH]ncc5c4)c23)C1` [Example 95, (7S)—N-Methyl-N-(propan-2-yl)-4-(1H-pyrazolo[3,4-b]pyridin-5-ylamino)-5,6,7,8-tetrahydro[1]benzothieno[2,3-d]pyrimidine-7-carboxamide] showed a half-inhibitory concentration (IC50) of 18 nM. Against the preceding molecule, the IC50 is about 1.8-fold higher.
